Target: T1, Nano luciferase (NLuc) (Oplophorus gracilirostris, UniProt Q9GV45, A31E/A60N/A81I/F95D/I117V/K70R/L54V/L99Q/M102K/N193R/P142E/Q151K/Q38R/Q45L/V71I/Y165I)
T1 construct: His tag (inferred from IMAC purification); made in house; host or cells: E. coli
Assay: Thermal shift profiles (Thermofluor assay), NLuc
Format: binding
Set-up: unit of the concentration uncertain
Conditions: compound 100 (unit uncertain); for Thermofluor NLuc, ATP: ATP (2 mM)
Description: Thermal stabilization of proteins in the presence of the ligands were determined using Thermofluor technique. MicroAmp optical 384-well plates (Applied Biosystems by Life Technologies), ViiA 7 real-time PCR instrument (Applied Biosystems by Life Technologies) and SYPRO Orange (Life Technologies) were used to test the samples. […]. Proteins were added to the 384-well plate first followed by the compounds. Samples were incubated for 10 mins at room temperature and protected from light. SYPRO Orange dye was diluted to 50x from 5000x stock in a PBS buffer, and 4 µL dye was added to the each well using a multi-channel pipette. The plate was sealed with a MicroAmp optical adhesive film, centrifuged at 1500 RPM for 2 min, and then loaded onto the ViiA 7 real–time PCR instrument for fluorescence intensity measurements upon heating the sample from 25 to 95 °C at 1 °C/min increments. Data was exported to excel, fluorescence intensity data and its first derivative were normalized and plotted using GraphPad Prism to determine Tm. See Supplementary Table 3 for additional details.
Supplementary Figure 6. Comparison of SDR and Thermofluor analysis of […]
Temperature °C Temperature °C […]
Supplementary Table 3. Protocol for Thermofluor assay
Supplementary Table 3: Protocol for Therm ofluor assay
Sequence Param eter Value Description […]
3 Incubation 10 m ins Room tem perature, protected from light
4 Dye 10X Sypro Orange dye in PBS added to the sam ple
5 Centrifugation 2 m in Centrifuge for 2 m in at 1500 RPM at RT
6 Read ViiA7 Read the therm al unfolding of the protein with ViiA7 real-tim e PCR system
4 Prepare 50X dye in PBS: 1 μL Sypro Orange 5000X (Life Technologies), 99 μL ddH2O. Add 4 μL to each well Read the m elting tem perature from 25 to 95 °C using ViiA 7 real tim e PCR instrum ent by following the below instructions Perform therm al denaturation in 384-well assay plate
(i) Place the assay plate into the Applied Biosystem s ViiA7 real-tim e PCR instrum ent and open the ViiA7 RUO software.
Under Experim ental Properties, select the following param eters: Set up: […] (20 μl), Experim ent type: MELT CURVE, Reagents used to detect target sequence: OTHER, Ram p Speed: […]
(ii) Select the Define tab on the left, then select the following param eters: Target nam e: TARGET 1, Reporter: ROX, 6 Quencher: NONE, Passive Reference: NONE
(iii) Select the Assign tab on the left, then perform the following actions: Highlight all 384 wells in the assay plate and check the box next to ‘Target 1’ on the top left of the plate layout. Note: check the ‘Sam ple’ box on the lower left.
(iv) Select the Run Method tab on the left, then m ake the following changes to the default Melt Curve profile: Delete Step 2 of the default cycle, change run m ethod to “Step and Hold” with a 1:00 tim e, set the following tem peratures: an initial 2:00 hold at 25 °C (4 °C), ram ping up in increm ents of 1 ° C to a final tem perature of 95 °C (with a 2:00 hold), click on all three cam eras to activate fluorescence detection throughout the experim ent, and Select total volum e per well of 20 μl
(v) Click on the RUN tab to the left to initiate therm al denaturation.

T1 sequence (Q9GV45 other isoform, or with tags, fused parts or gaps with the stated changes): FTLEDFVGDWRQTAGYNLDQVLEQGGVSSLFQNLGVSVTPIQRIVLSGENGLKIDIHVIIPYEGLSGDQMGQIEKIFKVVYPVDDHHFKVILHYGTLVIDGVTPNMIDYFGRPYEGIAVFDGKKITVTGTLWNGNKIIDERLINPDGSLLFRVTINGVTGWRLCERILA

SMILES: CC(CNC(=O)C1CCN(C(=O)c2ncn3c2COC(c2ccccc2)C3)CC1)c1ccccc1 (stereo not drawn) [NCGC 00449795]
- Thermofluor NLuc, No ATP (20.000 °C): 1
- Thermofluor NLuc, ATP (20.000 °C): 0.97
- Thermofluor NLuc, No ATP (20.993 °C): 0.711
- Thermofluor NLuc, ATP (20.993 °C): 0.992
- Thermofluor NLuc, No ATP (21.987 °C): 0.647
- Thermofluor NLuc, ATP (21.987 °C): 1
- Thermofluor NLuc, No ATP (22.980 °C): 0.606
- Thermofluor NLuc, ATP (22.980 °C): 0.993
- Thermofluor NLuc, No ATP (23.974 °C): 0.589
- Thermofluor NLuc, ATP (23.974 °C): 0.974
- Thermofluor NLuc, No ATP (24.967 °C): 0.561
- Thermofluor NLuc, ATP (24.967 °C): 0.95
- Thermofluor NLuc, No ATP (25.960 °C): 0.532
- Thermofluor NLuc, ATP (25.960 °C): 0.929
- Thermofluor NLuc, No ATP (26.954 °C): 0.532
- Thermofluor NLuc, ATP (26.954 °C): 0.916
- Thermofluor NLuc, No ATP (27.947 °C): 0.499
- Thermofluor NLuc, ATP (27.947 °C): 0.908
- Thermofluor NLuc, No ATP (28.940 °C): 0.462
- Thermofluor NLuc, ATP (28.940 °C): 0.904
- Thermofluor NLuc, No ATP (29.934 °C): 0.421
- Thermofluor NLuc, ATP (29.934 °C): 0.9
- Thermofluor NLuc, No ATP (30.927 °C): 0.383
- Thermofluor NLuc, ATP (30.927 °C): 0.894
- Thermofluor NLuc, No ATP (31.921 °C): 0.366
- Thermofluor NLuc, ATP (31.921 °C): 0.886
- Thermofluor NLuc, No ATP (32.914 °C): 0.333
- Thermofluor NLuc, ATP (32.914 °C): 0.878
- Thermofluor NLuc, No ATP (33.907 °C): 0.327
- Thermofluor NLuc, ATP (33.907 °C): 0.87
- Thermofluor NLuc, No ATP (34.901 °C): 0.309
- Thermofluor NLuc, ATP (34.901 °C): 0.863
- Thermofluor NLuc, No ATP (35.894 °C): 0.276
- Thermofluor NLuc, ATP (35.894 °C): 0.856
- Thermofluor NLuc, No ATP (36.887 °C): 0.231
- Thermofluor NLuc, ATP (36.887 °C): 0.849
- Thermofluor NLuc, No ATP (37.881 °C): 0.229
- Thermofluor NLuc, ATP (37.881 °C): 0.841
- Thermofluor NLuc, No ATP (38.874 °C): 0.176
- Thermofluor NLuc, ATP (38.874 °C): 0.833
- Thermofluor NLuc, No ATP (39.868 °C): 0.201
- Thermofluor NLuc, ATP (39.868 °C): 0.827
- Thermofluor NLuc, No ATP (40.861 °C): 0.184
- Thermofluor NLuc, ATP (40.861 °C): 0.824
- Thermofluor NLuc, No ATP (41.854 °C): 0.161
- Thermofluor NLuc, ATP (41.854 °C): 0.821
- Thermofluor NLuc, No ATP (42.848 °C): 0.108
- Thermofluor NLuc, ATP (42.848 °C): 0.817
- Thermofluor NLuc, No ATP (43.841 °C): 0.096
- Thermofluor NLuc, ATP (43.841 °C): 0.812
- Thermofluor NLuc, No ATP (44.835 °C): 0.098
- Thermofluor NLuc, ATP (44.835 °C): 0.805
- Thermofluor NLuc, No ATP (45.828 °C): 0.096
- Thermofluor NLuc, ATP (45.828 °C): 0.794
- Thermofluor NLuc, No ATP (46.821 °C): 0.034
- Thermofluor NLuc, ATP (46.821 °C): 0.779
- Thermofluor NLuc, No ATP (47.815 °C): 0.027
- Thermofluor NLuc, ATP (47.815 °C): 0.76
- Thermofluor NLuc, No ATP (48.808 °C): 0.048
- Thermofluor NLuc, ATP (48.808 °C): 0.734
- Thermofluor NLuc, No ATP (50.795 °C): 0.006
- Thermofluor NLuc, ATP (50.795 °C): 0.656
- Thermofluor NLuc, No ATP (51.788 °C): 0.009
- Thermofluor NLuc, ATP (51.788 °C): 0.601
- Thermofluor NLuc, No ATP (52.782 °C): 0
- Thermofluor NLuc, ATP (52.782 °C): 0.533
- Thermofluor NLuc, No ATP (53.775 °C): 0.03
- Thermofluor NLuc, ATP (53.775 °C): 0.451
- Thermofluor NLuc, No ATP (54.768 °C): 0.027
- Thermofluor NLuc, ATP (54.768 °C): 0.357
- Thermofluor NLuc, No ATP (55.762 °C): 0.051
- Thermofluor NLuc, ATP (55.762 °C): 0.257
- Thermofluor NLuc, No ATP (56.755 °C): 0.14
- Thermofluor NLuc, ATP (56.755 °C): 0.161
- Thermofluor NLuc, No ATP (57.748 °C): 0.19
- Thermofluor NLuc, ATP (57.748 °C): 0.079
- Thermofluor NLuc, No ATP (58.742 °C): 0.3
- Thermofluor NLuc, ATP (58.742 °C): 0.022
- Thermofluor NLuc, No ATP (59.735 °C): 0.413
- Thermofluor NLuc, ATP (59.735 °C): 0
- Thermofluor NLuc, No ATP (60.729 °C): 0.505
- Thermofluor NLuc, ATP (60.729 °C): 0.015
- Thermofluor NLuc, No ATP (61.722 °C): 0.61
- Thermofluor NLuc, ATP (61.722 °C): 0.065
- Thermofluor NLuc, No ATP (62.715 °C): 0.667
- Thermofluor NLuc, ATP (62.715 °C): 0.143
- Thermofluor NLuc, No ATP (63.709 °C): 0.726
- Thermofluor NLuc, ATP (63.709 °C): 0.238
- Thermofluor NLuc, No ATP (65.695 °C): 0.759
- Thermofluor NLuc, ATP (65.695 °C): 0.437
- Thermofluor NLuc, No ATP (66.689 °C): 0.785
- Thermofluor NLuc, ATP (66.689 °C): 0.525
- Thermofluor NLuc, No ATP (68.676 °C): 0.749
- Thermofluor NLuc, ATP (68.676 °C): 0.658
- Thermofluor NLuc, No ATP (69.669 °C): 0.746
- Thermofluor NLuc, ATP (69.669 °C): 0.703
- Thermofluor NLuc, No ATP (70.662 °C): 0.73
- Thermofluor NLuc, ATP (70.662 °C): 0.736
- Thermofluor NLuc, No ATP (71.656 °C): 0.72
- Thermofluor NLuc, ATP (71.656 °C): 0.76
- Thermofluor NLuc, No ATP (72.649 °C): 0.696
- Thermofluor NLuc, ATP (72.649 °C): 0.778
- Thermofluor NLuc, No ATP (73.643 °C): 0.686
- Thermofluor NLuc, ATP (73.643 °C): 0.793
- Thermofluor NLuc, No ATP (74.636 °C): 0.672
- Thermofluor NLuc, ATP (74.636 °C): 0.807
- Thermofluor NLuc, No ATP (75.629 °C): 0.623
- Thermofluor NLuc, ATP (75.629 °C): 0.82
